6 compounds from ChEMBL document CHEMBL5335848, “Penicilloneines A and B, Quinolone-Citrinin Hybrids from a Starfish-Derived Penicillium sp” (2024) can be followed below.

≈ marks a conversion by molar mass, not a printed value. Calls of active or inactive are those of the source. No cut-off for these calls is given here.

Assay [1] concerns Colletotrichum gloeosporioides. Kind of assay: Antifungal activity against Colletotrichum gloeosporioides assessed as induction of morphological changes by measuring separation of plasma membrane from cell wall at 5 mg/L incubated for 24 hrs by TEM analysis. It is filed as functional, organism-based.
Assay [2] deals with Colletotrichum gloeosporioides. Kind of assay: Antifungal activity against Colletotrichum gloeosporioides assessed as fold increase in acetylcholinesterase encoding gene expression by qRT-PCR analysis relative to control. The assay is classed as functional. Background: In qPCR the cycle at which signal appears reflects the starting amount.
In assay [3] the test system is Colletotrichum gloeosporioides. The experiment in a line: Antifungal activity against Colletotrichum gloeosporioides assessed as induction of morphological changes by measuring degradation of plasma membrane at 5 mg/L incubated for 24 hrs by TEM analysis. It is filed as functional, organism-based.
For assay [4], the system named is Colletotrichum gloeosporioides. Kind of assay: Antifungal activity against Colletotrichum gloeosporioides assessed as fold increase in leucine aminopeptidase encoding gene expression by qRT-PCR analysis relative to control. It is filed as functional.
Assay [5] has as its system Colletotrichum gloeosporioides. Kind of assay: Antifungal activity against Colletotrichum gloeosporioides assessed as induction of morphological changes by measuring appearance of clustered/bundled hyphae at 5 mg/L measured after 48 hrs by SEM analysis. The assay is classed as functional, organism-based.
Assay [6] deals with Colletotrichum gloeosporioides. The experiment in a line: Antifungal activity against Colletotrichum gloeosporioides assessed as decrease in phosphoketolase encoding gene expression by RNA-seq analysis. It is filed as functional, organism-based.
In assay [7] the test system is Colletotrichum gloeosporioides. Kind of assay: Antifungal activity against Colletotrichum gloeosporioides assessed as fold increase in putative hydrolase encoding gene expression by qRT-PCR analysis relative to control. It is filed as functional.
The subject of assay [8] is Colletotrichum gloeosporioides. Kind of assay: Antifungal activity against Colletotrichum gloeosporioides assessed as induction of morphological changes by measuring aggregation of particles into clusters in cytoplasm at 5 mg/L incubated for 24 hrs by TEM analysis. It is filed as functional, organism-based.
Assay [9] concerns Colletotrichum gloeosporioides. Kind of assay: Antifungal activity against Colletotrichum gloeosporioides assessed as induction of morphological changes by measuring appearance of distorted hyphae at 5 mg/L measured after 48 hrs by SEM analysis. The assay is classed as functional, organism-based.
Assay [10] relates to Colletotrichum gloeosporioides. Kind of assay: Antifungal activity against Colletotrichum gloeosporioides assessed as fold increase in beta-galactosidase encoding gene expression by qRT-PCR analysis relative to control. The assay is classed as functional.
Assay [11] relates to Colletotrichum gloeosporioides. The experiment in a line: Antifungal activity against Colletotrichum gloeosporioides assessed as induction of morphological changes by measuring appearance of disorganized organelles at 5 mg/L incubated for 24 hrs by TEM analysis. The assay is classed as functional, organism-based.
Assay [12] concerns Colletotrichum gloeosporioides. The experiment in a line: Antifungal activity against Colletotrichum gloeosporioides assessed as induction of morphological changes by measuring disappearance of organelles at 5 mg/L incubated for 24 hrs by TEM analysis. It is filed as functional, organism-based.
Assay [13] concerns Colletotrichum gloeosporioides. The experiment in a line: Antifungal activity against Colletotrichum gloeosporioides assessed as decrease in 3-carboxymuconate cyclase encoding gene expression by RNA-seq analysis. It is filed as functional, organism-based.
The subject of assay [14] is Colletotrichum gloeosporioides. Kind of assay: Antifungal activity against Colletotrichum gloeosporioides assessed as decrease in oxalate decarboxylase encoding gene expression by RNA-seq analysis. It is filed as functional, organism-based.
Assay [15] relates to Colletotrichum gloeosporioides. Kind of assay: Antifungal activity against Colletotrichum gloeosporioides assessed as increase in beta-galactosidase encoding gene expression by RNA-seq analysis. It is filed as functional, organism-based.
Assay [16] relates to Colletotrichum gloeosporioides. Kind of assay: Antifungal activity against Colletotrichum gloeosporioides assessed as fold decrease in phosphoketolase encoding gene expression by qRT-PCR analysis relative to control. The assay is classed as functional.
The test system of assay [17] is Colletotrichum gloeosporioides. The experiment in a line: Antifungal activity against Colletotrichum gloeosporioides assessed as fold decrease in oxalate decarboxylase encoding gene expression by qRT-PCR analysis relative to control. It is filed as functional.
Assay [18] relates to Colletotrichum gloeosporioides. Kind of assay: Antifungal activity against Colletotrichum gloeosporioides assessed as fold increase in lipase encoding gene expression by qRT-PCR analysis relative to control. The assay is classed as functional.
In assay [19] the test system is Colletotrichum gloeosporioides. The experiment in a line: Antifungal activity against Colletotrichum gloeosporioides assessed as increase in putative hydrolase encoding gene expression by RNA-seq analysis. It is filed as functional, organism-based.
For assay [20], the system named is Colletotrichum gloeosporioides. The experiment in a line: Antifungal activity against Colletotrichum gloeosporioides assessed as fold decrease in pyruvate decarboxylase encoding gene expression by qRT-PCR analysis relative to control. The assay is classed as functional.
Assay [21] deals with Colletotrichum gloeosporioides. Kind of assay: Antifungal activity against Colletotrichum gloeosporioides assessed as decrease in pyruvate decarboxylase encoding gene expression by RNA-seq analysis. The assay is classed as functional, organism-based.
Assay [22] has as its system Colletotrichum gloeosporioides. The experiment in a line: Antifungal activity against Colletotrichum gloeosporioides assessed as increase in glycosyl hydrolase encoding gene expression by RNA-seq analysis. The assay is classed as functional, organism-based.
The subject of assay [23] is Colletotrichum gloeosporioides. The experiment in a line: Antifungal activity against Colletotrichum gloeosporioides assessed as induction of morphological changes by measuring increase in low density particles in cytoplasm at 5 mg/L incubated for 24 hrs by TEM analysis. The assay is classed as functional, organism-based.
For assay [24], the system named is Colletotrichum gloeosporioides. The experiment in a line: Antifungal activity against Colletotrichum gloeosporioides assessed as fold increase in glycosyl hydrolase encoding gene expression by qRT-PCR analysis relative to control. The assay is classed as functional.
Assay [25] has as its system Colletotrichum gloeosporioides. The experiment in a line: Antifungal activity against Colletotrichum gloeosporioides assessed as induction of morphological changes by measuring appearance of cavities at 5 mg/L incubated for 24 hrs by TEM analysis. The assay is classed as functional, organism-based.
For assay [26], the system named is Colletotrichum gloeosporioides. Kind of assay: Antifungal activity against Colletotrichum gloeosporioides assessed as induction of morphological changes by measuring appearance of twisted hyphae at 5 mg/L measured after 48 hrs by SEM analysis. It is filed as functional, organism-based.
For assay [27], the system named is Colletotrichum gloeosporioides. The experiment in a line: Antifungal activity against Colletotrichum gloeosporioides assessed as induction of morphological changes by measuring appearance of vacuolizations at 5 mg/L incubated for 24 hrs by TEM analysis. The assay is classed as functional, organism-based.
The subject of assay [28] is Colletotrichum gloeosporioides. The experiment in a line: Antifungal activity against Colletotrichum gloeosporioides assessed as inhibition of mycelial growth incubated for 3 days by cross-bonded method. The assay is classed as functional. The following applies: for LC50: 72 h, time 3 day; for Activity: time 3.0 day.
Assay [29] concerns Colletotrichum gloeosporioides. The experiment in a line: Antifungal activity against Colletotrichum gloeosporioides assessed as induction of morphological changes by measuring reduction in high density particles in cytoplasm at 5 mg/L incubated for 24 hrs by TEM analysis. It is filed as functional, organism-based.
The subject of assay [30] is Colletotrichum gloeosporioides. Kind of assay: Antifungal activity against Colletotrichum gloeosporioides assessed as fold decrease in 3-carboxymuconate cyclase encoding gene expression by qRT-PCR analysis relative to control. It is filed as functional.
In assay [31] the test system is Colletotrichum gloeosporioides. The experiment in a line: Antifungal activity against Colletotrichum gloeosporioides assessed as increase in acetylcholinesterase encoding gene expression by RNA-seq analysis. It is filed as functional, organism-based.
Assay [32] has as its system Colletotrichum gloeosporioides. Kind of assay: Antifungal activity against Colletotrichum gloeosporioides assessed as increase in leucine aminopeptidase encoding gene expression by RNA-seq analysis. It is filed as functional, organism-based.
The subject of assay [33] is Colletotrichum gloeosporioides. The experiment in a line: Antifungal activity against Colletotrichum gloeosporioides assessed as induction of morphological changes by measuring appearance of evident craters on surface at 5 mg/L measured after 48 hrs by SEM analysis. It is filed as functional, organism-based.
Assay [34] relates to Colletotrichum gloeosporioides. Kind of assay: Antifungal activity against Colletotrichum gloeosporioides assessed as increase in lipase encoding gene expression by RNA-seq analysis. It is filed as functional, organism-based.
For assay [35], the system named is Colletotrichum gloeosporioides. Kind of assay: Antifungal activity against Colletotrichum gloeosporioides assessed as disruption of cell wall at 5 mg/L incubated for 24 hrs by TEM analysis. It is filed as functional, organism-based.

Regarding `CC1=C2C(=CO[C@H](C)[C@H]2C)C(O)=C(Cc2c(O)c3ccccc3n(C)c2=O)C1=O`, the result in assay [1], in assay [3], in [5], in [6], in [8] and in [9] was Active. The result in assay [11], in [12], in assay [13], in [14], in [15] and in assay [19] was Active. Also, the outcome in assay [21], in assay [22], in assay [23], in [25], in [26] and in assay [27] was Active. Further, the result in assay [29], in assay [31], in assay [32], in assay [33] and in assay [34] was Active. Also, the “fold change (FC)” value in assay [2] was determined as 6; in assay [4], 3.5; in assay [7] it was 14; in [10] it was 4.7; in assay [16] it was 1.47; in assay [17], 23.8. For the same compound, the “fold change (FC)” value is listed as 8.9 in assay [18], 215 in assay [20], 1.7 in assay [24] and 386 in assay [30]. The LC50 (commonly the concentration lethal to half of the exposed cells or organisms) in assay [28] is 0.02 µg/mL (≈ 0.0508 µM).

`Cn1c(=O)cc(O)c2ccccc21`: the result in assay [28] was Active.

`CC1=C2C(=CO[C@H](C)[C@H]2C)C(O)=C(C(=O)O)C1=O`: the result in assay [28] was Active.

For `Cc1c(O)c(Cc2c(O)c3ccccc3n(C)c2=O)c(O)c2c1[C@H](C)[C@@H](C)OC2=O`, the median lethal concentration (LC50) in assay [28] was 1.51 µg/mL (≈ 3.69 µM).

For Mancozeb, the outcome in assay [35], in assay [27] and in [28] was Active.

`Cc1c(O)c(C(=O)O)c(O)c2c1[C@H](C)[C@@H](C)OC2=O`: in assay [28], the outcome was Active.
